The values below come from patent US20250313544A1, “INHIBITORS OF GLUTATHIONE S-TRANSFERASE ZETA 1 (GSTZ1) AND METHODS OF USE” (H. LEE MOFFITT CANCER CENTER AND RESEARCH INSTITUTE, INC., priority 2022, published 2025).

SMILES strings stand for the structures.

For assay [1], the system named is H520 cells harboring amplified FGFR1. Description: Cell viability assay (CellTiter-Glo) in H520 cells. Type of assay: cell-based, human. As to conditions: probe combined with infigratinib in H520 cells, dose of 5 μM (FIG. 9E). Here is the method: (§1) Cells were seeded in Corning 384-well black walled/clear bottom microplates with a density of 1,000 cells/well and treated with indicated drugs and concentrations following cell attachment for 24 h. After 72 h or 96 h, as indicated, cell viability was evaluated with CellTiter-Glo (Promega, Madison, WI) according to manufacturer's recommendations. An M5 Spectramax plate reader (Molecular devices) was used to read the plates with 500 ms integration. Data was processed and analyzed using Excel and GraphPad Prism 9.0.
On the technique in general: ATP-based viability assays read luminescence as a measure of living cells.

The next assay has as its target T1, GSTZ1 (Homo sapiens, UniProt O43708).
T1 sequence (O43708 1-216): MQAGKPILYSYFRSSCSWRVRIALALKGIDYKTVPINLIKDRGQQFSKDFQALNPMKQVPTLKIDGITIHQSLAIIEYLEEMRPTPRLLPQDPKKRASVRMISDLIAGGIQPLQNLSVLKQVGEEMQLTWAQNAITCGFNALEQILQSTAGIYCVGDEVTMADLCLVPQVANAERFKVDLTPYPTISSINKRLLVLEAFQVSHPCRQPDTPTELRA
Description: GSTZ1 pulldown and competition after photocrosslinking in live H1792 cells (biotin enrichment, immunoblotting). Also on record: endogenous in cells; host or cells: H1792 cells. Type of assay: binding. The following applies: UV crosslinking. How it is done: Cells were harvested and washed with PBS and lysed in RIPA buffer (150 mM NaCl, 50 mM Tris-HCl, pH 7.4, 5 mM EDTA, 1% NP40, 0.1% SDS) containing complete protease inhibitor cocktail (Roche, 11873580001) and phosphatase inhibitor cocktail 2 (Sigma, P5726) for 30 min on ice. The Coomassie Plus (Bradford) protein assay (23236, ThermoFisher, MA) was conducted for measuring concentrations of resulting supernatants. Samples were prepared by adding 4× Laemmli sample buffer and heat-denaturing for 5 minutes. All samples or total cell lysates were resolved by SDS-PAGE and then transferred onto PVDF membranes. 5% non-fat milk was utilized for blocking of non-specific binding. Blots were incubated with primary antibodies overnight at 4° C. For immunoblotting, primary antibodies were purchased from Cell Signaling: PARP1 (#9542), cleaved caspase-3 (#9661), Phospho-tyrosine Mouse mAb (P-Tyr-100, #9411), FGFR1 (#9740). GAPDH (#60004-1-Ig) and GSTZ1 (#14889-1-AP) were purchased from Proteintech. […] Densitometry was analyzed using Image Studio Lite Ver 5.2.
Cells were grown in 10 cm dishes to ˜90% confluence at the time of treatment. […] Protein concentrations were determined using Bradford assays. […]
Background: Immunoblotting shows a protein as a band on a membrane.

Assay [2] has as its system HCC366 cells harboring mutated DDR2. In words: Cell viability assay (CellTiter-Glo) in HCC366 cells. The following applies: probe combined with dasatinib in HCC366 cells, dose of 10 μM (FIG. 9F). Type of assay: cell-based, human. Here is the method: as §1

Turning to `C#CCCC1(CCC(=O)N2CCC(COc3nc4ccccc4nc3C)CC2)N=N1` [Probe 17, 3-(3-(but-3-yn-1-yl)-3H-diazirin-3-yl)-1-(4-(((3-methylquinoxalin-2-yl)oxy)methyl)piperidin-1-yl)propan-1-one], in assay [1], the “sensitization of cells towards infigratinib” value is reported as “significantly enhanced the sensitivity”. Moreover, at GSTZ1, the “GSTZ1 enrichment by probe (affinity enrichment, immunoblotting with GSTZ1 antibody)” value is on record as “specifically enriched”. Also, in assay [2], the “sensitization of cells towards dasatinib” value is recorded as “significantly enhanced the sensitivity”.
